# Measured values reported in US20230124862A1, “BISMUTH THIOL COMPOUNDS AND COMPOSITIONS AND METHODS OF TREATING MICROBIAL CO-INFECTIONS” (Microbion Corporation, priority 2020, published 2023).
# Like-named read-outs stand apart in the source and are kept apart here. Marks after values point to notes of the source that are not given here.
# Key:
# [1] = system: E. coli ATCC 25922; experiment: MIC control strain; details: QC organism, Example 13
# [2] = system: S. aureus; experiment: Broth microdilution MIC (Example 11); type: cell-based, Staphylococcus aureus
# [3] = system: Candida krusei; experiment: Antifungal broth microdilution (Example 13); type: cell-based; details: for MIC: Pichia kudriavzevii
# [4] = system: S. aureus ATCC 29213; experiment: MIC control strain; details: QC organism, Example 13
# [5] = system: S. aureus ATCC 29213; details: cited from earlier work; for Expected MIC: goal (acceptable range): control strain ATCC 29213
# [6] = system: Pseudomonas aeruginosa strain PA01; experiment: Bacterial killing curves with and without CF patient sputum; type: cell-based; details: for bactericidal activity: 0.1 μg/mL
# [7] = system: Enterobacteriaceae; details: E. coli (MMX 102), QC; cited from earlier work
# [8] = system: P. aeruginosa; details: P. aeruginosa isolate 103; CLSI QC range in parenthesis; cited from earlier work
# [9] = system: Escherichia coli; details: CLSI established QC range, cited from earlier work
# [10] = system: Pseudomonas aeruginosa; details: P. aeruginosa ATCC 27853; CLSI established QC range; cited from earlier work
# [11] = system: Burkholderia cepacia complex; experiment: Checkerboard FIC/FICI assay; type: cell-based, Burkholderia spp.; details: during FIC testing
# [12] = system: P. aeruginosa; details: P. aeruginosa isolate 103; CLSI QC range in parenthesis; cited from earlier work; remark: listed apart in the source
# [13] = system: Klebsiella pneumoniae; details: K. pneumoniae ATCC BAA-1705; CLSI established QC range; cited from earlier work
# [14] = system: P. aeruginosa; details: control strain ATCC 27853; cited from earlier work
# [15] = type: in vivo, patients; details: end of treatment (Week 2-3), test of cure (Week 4-5), end of study (Week 8-9)
# [16] = system: Gram-positive organisms (S. aureus, S. pneumoniae); details: cited from earlier work
# [17] = system: Gram-negative organisms (P. aeruginosa, E. coli, A. baumannii, H. influenzae); details: cited from earlier work
# [18] = in vivo; parameters: species or system F344 rats; details: both sexes; for concentration at 30 hr: sac time 30 hr
# Method: Detailed gross necropsies were performed on all animals (found dead, moribund, or scheduled necropsy) and consisted of a complete external and internal examination including body orifices and cranial, thoracic, and abdominal organs and tissues. All gross findings will be recorded in descriptive terms. […] Lungs collected and weighed.
# [19] = system: Pseudomonas aeruginosa; type: in vivo, Sprague Dawley rats; details: rats, single dose of BisEDT, by Day 5
# Method: The efficacy of BisEDT in reducing pulmonary bacterial burden associated with pulmonary infection in a rat model of pulmonary Pseudomonas aeruginosa infection was evaluated. The results follow.
# Conclusion: Animals were divided into four experiment inhalational treatment groups: 1) Group 1, a negative control group treated with saline on Days 0, 2, and 4; 2) Group 2, a positive control group treated with tobramycin (target of 20 mg/kg, BID, Days 1-4); 3) Group 3, BisEDT (target of 0.1 mg/kg, QD, Days 0, 2, 4); and Group 4, BisEDT (target of 0.25 mg/kg, once, Day −1). Animals were further divided into two cohorts, separated by one day, to accommodate the challenge and treatment of the number of animals. All animals were exposed per protocol except Group 1 and 3, cohort 2. These animals were exposed on Days 0, 1, and 4 instead of on Days 0, 2, 4.
# An in vivo efficacy study was designed to assess the efficacy of inhaled BisEDT in a chronic model of P. aeruginosa pulmonary infection. […] Animals were euthanized at Study Day 3 and 5 and assessed for level of pulmonary bacterial burden. […]
compound,measurement,setting,value
"CC(S)C(C)S.[Bi] (stereo not shown) [BisBDT, bismuth-2,3-butanedithiol]",MIC 24 hr,[1],0.5^a
same,MIC,"[2]; S. aureus MMX 5373, MRSA, Lev^R Cip^R CC^R Ery^R Ox^R",≤0.06 µg/mL
same,MIC,"[2]; S. aureus MMX 6311, MRSA, Lev^R Cip^R CC^R Ery^R Ox^R",≤0.06 µg/mL
same,MIC,"[2]; S. aureus MMX 9204, MRSA, Lev^R Cip^R Ery^R Ox^R",≤0.06 µg/mL
same,MIC,"[2]; S. aureus MMX 9205, MRSA, Lev^R Cip^R CC^R Ery^R Ox^R",≤0.06 µg/mL
same,MIC,"[2]; Staphylococcus aureus, ATCC 29213 / MSSA",≤ 0.06 µg/mL
same,MIC 24 hr,"[3]; C. krusei ATCC 6258, first of two values x/y (footnote b not given, matches MIC2 of Table 107)",0.5 µg/mL
same,MIC 24 hr,"[3]; C. krusei ATCC 6258, second of two values x/y (footnote b not given, matches MIC0 of Table 107)",1 µg/mL
same,MIC 48 hr,"[3]; C. krusei ATCC 6258, 48 hr, first of two values x/y (footnote b not given, presumably MIC2)",1 µg/mL
same,MIC,"[3]; C. krusei MMX 7125, Susceptible, 50% inhibition, read-out: MIC2",0.5 µg/mL
same,MIC,"[3]; C. krusei MMX 7125, Susceptible, complete inhibition, read-out: MIC0",1 µg/mL
same,MIC,"[3]; C. krusei MMX 7141, Susceptible, 50% inhibition, read-out: MIC2",1 µg/mL
same,MIC,"[3]; C. krusei MMX 7141, Susceptible, complete inhibition, read-out: MIC0",2 µg/mL
same,MIC,"[3]; C. krusei MMX 7155, Susceptible, 50% inhibition, read-out: MIC2",0.5 µg/mL
same,MIC,"[3]; C. krusei MMX 7155, Susceptible, complete inhibition, read-out: MIC0",1 µg/mL
same,MIC,"[3]; C. krusei MMX 7563, Susceptible, 50% inhibition, read-out: MIC2",0.5 µg/mL
same,MIC,"[3]; C. krusei MMX 7563, Susceptible, complete inhibition, read-out: MIC0",1 µg/mL
same,MIC,"[3]; C. krusei MMX 9878, MICA-I, VORI-I, 50% inhibition, read-out: MIC2",0.5 µg/mL
same,MIC,"[3]; C. krusei MMX 9878, MICA-I, VORI-I, complete inhibition, read-out: MIC0",1 µg/mL
same,MIC,"[3]; […], complete inhibition, read-out: MIC0",1 µg/mL
same,MIC,[3]; read-out: MIC2,0.5 µg/mL
same,MIC 24 hr,[4],1^a
same,Expected MIC: goal (acceptable range),[5],0.25 (0.12-0.5) mcg/mL
same,bactericidal activity,[6],not bactericidal
same,more surviving in cultures with sputum,"[6]; 4 μg/mL, 3-6 hours",0.5-0.8 log CFU/mL
same,killing without sputum,"[6]; 4 μg/mL, over the 6 hour assay",about 1 log
same,time to sterilization below the limit of detection,"[6]; 20 μg/mL, with and without sputum",≤ 5 h
C[C@@H](O)[C@H]1C(=O)N2C(C(=O)O)=C(S[C@@H]3CN[C@H](C(=O)N(C)C)C3)[C@H](C)[C@H]12 [MEM],CLSI Quality Control Range (MIC),[7],(0.008-0.06) μg/mL
same,CLSI QC range of MIC,[8],(0.12-1) μg/mL
same,QC range of MIC,[9]; E. coli ATCC 25922,(0.008-0.06) μg/mL
same,QC range of MIC,[9]; E. coli ATCC 35218,(0.008-0.06) μg/mL
same,QC range of MIC,[10],(0.12-1) μg/mL
same,MIC,[11]; B. cenocepacia isolate 0548,4 µg/mL
same,MIC,[11]; B. cenocepacia isolate 0813,9 µg/mL
same,MIC,[11]; B. cepacia isolate 0546,4 µg/mL
same,MIC,[11]; B. cepacia isolate 1793,4 µg/mL
same,MIC,[11]; B. multivorans isolate 1795,4 µg/mL
same,CLSI QC range of MIC,[12],(0.12-1) μg/mL
same,QC range of MIC,[13],(8-64) μg/mL
"C1C[S][Bi]([S]CC[S][Bi]2[S]CC[S]2)[S]1 [BisEDT, Bismuth-1,2-ethanedithiol]",Expected MIC: goal (acceptable range),[14],1 to 2 µg/mL
same,CLSI QC range of MIC,[8],(0.5-4) μg/mL
same,QC range of MIC,[9]; E. coli ATCC 25922,(0.5-4)^1 μg/mL
same,QC range of MIC,[10],(0.5-4) μg/mL
same,proportion of subjects with >50% reduction in wound surface area from baseline vs placebo,[15],A larger proportion
same,CLSI acceptable MIC QC range,[16]; S. aureus ATCC 29213,(0.12-1) μg/mL
same,CLSI acceptable MIC QC range,[16]; S. pneumoniae ATCC 49619,(0.12-1) μg/mL
same,CLSI acceptable MIC QC range,[17]; H. Influenzae ATCC 49247,(0.015-0.06) μg/mL
same,CLSI acceptable MIC QC range,[17]; P. aeruginosa ATCC 27853,0.5 to 4 µg/mL
same,CLSI QC range of MIC,[12],(0.5-4)^2 μg/mL
same,concentration at 30 hr,"[18]; F344, in vivo, rat, inhalation, dose 47 μg/kg, read-out: Mean BisEDT Conc, lung at sacrifice",4.8 ng/g
same,concentration at 30 hr,"[18]; F344, in vivo, rat, inhalation, dose 124 μg/kg, read-out: Mean BisEDT Conc, lung at sacrifice",5.9 ng/g
same,concentration at 30 hr,"[18]; F344, in vivo, rat, inhalation, dose 400 μg/kg, read-out: Mean BisEDT Conc, lung at sacrifice",12.1 ng/g
same,concentration at 24 hr,"[18]; F344, in vivo, rat, inhalation, dose 3000 μg/kg, sac time 24 hr, read-out: Mean BisEDT Conc, lung at sacrifice",82.3 ng/g
same,Kp at 24 hours,"[18]; F344, rat, in vivo, rats, 24 hours after dosing, read-out: lung tissue drug levels higher than blood levels",4 to 5
same,QC Range 24 hr,"[5]; S. aureus ATCC 29213, established QC range, 24 hr",0.12-1
same,Expected MIC: goal (acceptable range),[5],0.25 to 0.5 µg/mL
same,efficacy vs tobramycin positive control group,[19],not significantly different
same,bactericidal activity,[6],not bactericidal
